Assays:
[1] = tested on: aLfuk1 bacterial fucosidase; conditions: Table 1; Benesova 2013; cited from earlier work
[2] = tested on: TM0306 bacterial fucosidase, T. maritima; conditions: Table 1, Sulzenbacher 2004, cited from earlier work
[3] = tested on: BT_2970 bacterial fucosidase; conditions: Table 1; Sakurama 2012; cited from earlier work
[4] = tested on: BT_2970 bacterial fucosidase, B. subtilis thetaiotaomicron; conditions: Table 1; Sakurama 2012; cited from earlier work
[5] = tested on: AlfC bacterial fucosidase, L. casei; parameters: Vmax: unit not given here; conditions: Table 1; Rodriguez-Diaz 2011; cited from earlier work
[6] = tested on: XCC2888 bacterial fucosidase, Xanthomonas campestris; conditions: Table 1, Dupoiron 2015, cited from earlier work
[7] = tested on: AlfB bacterial fucosidase, L. casei; parameters: Vmax: unit not given here; conditions: Table 1; Rodriguez-Diaz 2011; cited from earlier work
[8] = biological target: Vibrio sp. strain EJY3 α-L-fucosidase VeFUC (VEJY3_11310, UniProt H2IHW9.1), wild type, SEQ ID NO: 1 (Vibrio sp. EJY3, UniProt A0ACD6BAZ0); assay: Kinetic parameters of VeFUC for pNP-α-L-Fuc; type: biochemical; conditions: Table 1, Present invention
Experimental: Genomic DNA of Vibrio sp. strain EJY3 for cloning a gene encoding VeFUC was prepared as follows: Vibrio sp. strain EJY3 was cultured in a minimum medium consisting of 23 g/L Instant Ocean Sea Salt (Aquarium Systems, Mentor, OH, USA), 50 mM Tris-HCl (pH 7.4), 2 g/L glucose, 1 g/L yeast extract and 0.5 g/L ammonium chloride at 303 K and 200 rpm for 18 hours. The genomic DNA was extracted from a culture using the DNeasy Blood & Tissue Kit (Qiagen, Valencia, CA, USA) according to the manufacturer's protocol. A target gene, VEJY3_11310 (UniProt accession no. H2IHW9.1) was amplified by PCR using the following primers. The underlined parts are BamHI and XhoI restriction enzyme sites; […]
(§1) Recombinant E. coli loaded with the pET21a-VeFUC plasmid was grown at 310 K and 200 rpm until an absorbance measured at 600 nm in a culture Luria-Bertani (LB) broth containing 100 mg L^−1 ampicillin reached 0.6. […] The concentrated enzyme solution was analyzed by bicinchoninic acid (BCA) protein analysis (Thermo Fisher Scientific, Waltham, MA) and 12% (w/v) SDS-PAGE gel electrophoresis to determine the concentration, size and purity of the target protein.
(§2) The reaction was terminated by adding 500 μl of 1 M sodium carbonate thereto, and the absorbance of the reaction mixture was quantified by spectrophotometry at 405 nm. […]

[9] = tested on: AlfA bacterial fucosidase, Lactobacillus casei; conditions: Table 1; Rodriguez-Diaz 2011; cited from earlier work
[10] = tested on: Alf1_Wf bacterial fucosidase, Wenyingzhuangia fucanilytica; conditions: Table 1; Dong 2017; cited from earlier work
[11] = tested on: TfFuc1 bacterial fucosidase, Tannerella forsythia; conditions: Table 1; Megson 2015; cited from earlier work
[12] = substrate: C[C@@H]1O[C@@H](Oc2ccc([N+](=O)[O-])cc2)[C@@H](O)[C@H](O)[C@@H]1O; assay: Kinetic parameters of VeFUC for pNP-α-L-Fuc; type: biochemical, Vibrio sp. strain EJY3; conditions: other: text, 313 K, 10 mM sodium acetate buffer (pH 6.0), Lineweaver-Burk plot, 40.0 °C
Experimental: Genomic DNA of Vibrio sp. strain EJY3 for cloning a gene encoding VeFUC was prepared as follows: Vibrio sp. strain EJY3 was cultured in a minimum medium consisting of 23 g/L Instant Ocean Sea Salt (Aquarium Systems, Mentor, OH, USA), 50 mM Tris-HCl (pH 7.4), 2 g/L glucose, 1 g/L yeast extract and 0.5 g/L ammonium chloride at 303 K and 200 rpm for 18 hours. The genomic DNA was extracted from a culture using the DNeasy Blood & Tissue Kit (Qiagen, Valencia, CA, USA) according to the manufacturer's protocol. A target gene, VEJY3_11310 (UniProt accession no. H2IHW9.1) was amplified by PCR using the following primers. The underlined parts are BamHI and XhoI restriction enzyme sites;
Recombinant proteins were purified using a HisTrap column (GE Healthcare, Piscataway, NJ, USA) by adding sequences encoding 6 histidines to the reverse primer. A PCR product was treated with BamHI and XhoI restriction enzymes and subsequently ligated to a pET-21a plasmid (Novagen, Darmstadt, Germany) to construct a PET21a-VeFUC plasmid.
as §1, §2
In order to measure the kinetic parameters of VeFUC for pNP-α-L-Fuc, enzymatic reactions were performed at different concentrations of pNP-α-L-Fuc in a range of 0.109 to 0.875 mM under the same conditions described above. Vmax, Km and kcat, which are enzyme kinetic parameters of VeFUC were measured from a Lineweaver-Burk plot. […]

## C[C@@H]1O[C@@H](Oc2ccc([N+](=O)[O-])cc2)[C@@H](O)[C@H](O)[C@@H]1O [pNP-α-L-Fuc, p-nitrophenyl-α-L-fucopyranoside]
[1]
  Km: 440 ± 20 µM
[2]
  Km: 34 ± 2 µM
[2]; in 1/s
  Kcat: 5.4 ± 0.2
[3]
  Kcat: 1.3 s⁻¹
[4]
  Km: 1500 µM
[5]
  Km: 5300 µM
  Vmax: 22.2
[6]
  Km: 700 ± 100 µM
[6]; in 1/s
  Kcat: 6.1 ± 2.0
[7]
  Km: 2900 µM
  Vmax: 6
[8]
  Vmax: 24.8 ± 0.9
[8]; in 1/s
  Kcat: 4.81 ± 1.8
[9]
  Km: 270 µM
[10]
  Kcat: 5.44 s⁻¹
  Km: 3300 ± 420 µM
  Vmax: 4.75
[11]
  Km: 670 ± 200 µM
  Vmax: 20.4

B1: Vibrio sp. strain EJY3 α-L-fucosidase VeFUC (VEJY3_11310, UniProt H2IHW9.1), wild type, SEQ ID NO: 1 (Vibrio sp. EJY3) (protein)
chain: MTKPTAGELTGTSSQATSQLDNRNAFTGVSKQGLNRWKKNTFGMFIHWGLYCHRDLAGYYQGQYYDIISEWLPHFARIPMRDYKEYASDFNPSEFDADQVTALAKTAGMNYMVVTAKHHDGFAMYHSPSHPFNITDATPFKRDPVAELSQSCRHKDLDFGLYYSHVIDWENENAVSKAPNDWDFNPDQANYQEYWNNKCLPQVNELLEQYGDLCSLWFDMGGFDVQEEADHVRRIGELMALIRKKQPDAVVNSRVTAPECEYQLDWDIKTGHDNYMEPLYIKPYYWEGIATSNDNWGYSRNDNNTKSSKDLINQLCSVVSRGGNFLLNITLDHNGRIPQSLVRLLSEIGQWMQVNQEAVIDTEATPLQTGFNWGVVTHRPATNKLYLHVQRQPEQNVICLHSLNNRIKQVRLLDNQIKGHVSYLQKTHTDTGITASTLNLQLGHNYDRMPLVIELEYDGELDINPIVHQDRLAKVRLDTLNIAHFDPEKLTYRWTFQIQSPGRFALDLVSLETMHHKDPQWVHNGKTGRISCGGQSWEFELNLDKTDTNDAQVPWKNIHSRLGELHFPQAGEYTLEFSELPLAIDQSEKYGQDYINLEYLQLGPRLA
[12]
  Km: 6340 ± 480 µM
  Vmax: 24.8±0.9 U mg^−1 protein
  kcat: 4.81 ± 1.8 s⁻¹
